Experimental data: PubChem BioAssay (NCI)
Values joined by “and” are separate entries in the source; they are usually repeats but may differ in a detail not shown here. Equal entries are not always repeated.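 Step 1: Grow cells in 96-well plates. Step 2: Expose to compound for 48 hours at 5 concentrations. Step 3: Interpolate endpoints linearly; if unreached, use highest concentration. GI50 marks 50% less growth. TGI denotes the concentration required for complete inhibition of growth.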

Legend:
Assay in all cases: inhibition of tumour cell growth, NCI panel, 48 h
IGROV1 ovarian = system: IGROV1 ovarian
A498 renal = system: A498 renal
SK-MEL-28 melanoma = system: SK-MEL-28 melanoma
SF-268 CNS = system: SF-268 CNS
A549 NSCLC = system: A549 NSCLC
U251 CNS = system: U251 CNS
T-47D breast = system: T-47D breast
NCI-H226 lung = system: NCI-H226 lung
MALME-3M melanoma = system: MALME-3M melanoma
MCF7 breast = system: MCF7 breast

Compound	TGI (IGROV1 ovarian) [µM]	TGI (A498 renal)	TGI (SK-MEL-28 melanoma)	TGI (SF-268 CNS) [µM]	TGI (A549 NSCLC) [µM]	TGI (U251 CNS) [µM]	TGI (T-47D breast) [µM]	TGI (NCI-H226 lung) [µM]	TGI (MALME-3M melanoma) [µM]	TGI (MCF7 breast) [µM]	GI50 (IGROV1 ovarian)	GI50 (A498 renal)	GI50 (SK-MEL-28 melanoma)	GI50 (SF-268 CNS)	GI50 (A549 NSCLC)	GI50 (U251 CNS)	GI50 (T-47D breast)	GI50 (NCI-H226 lung)	GI50 (MALME-3M melanoma)	GI50 (MCF7 breast)
Nc1c(C(=O)Nc2ccc([As](=O)(O)O)cc2)cnc2nnnn12	> 100	> 100 µM	> 100 µM	> 100	> 100	> 100	> 100	> 100	> 100	> 100										
CC(C)n1c(/C=C/[C@@H](O)C[C@@H](O)CC(=O)O)c(-c2ccc(F)cc2)c2ccccc21	> 100	0.527 µM and 0.848 µM	53.9 µM and > 86.3 µM	> 100	> 100	> 100	> 100	> 100	> 100	> 100	2.99 µM and 2.68 µM	0.164 µM and 0.219 µM	12.2 µM and 15.4 µM	0.666 µM and 0.818 µM	5.93 µM and 6.99 µM	0.455 µM and 0.558 µM	14.2 µM and 13.8 µM	2.89 µM and 3.71 µM	26.7 µM and 27.4 µM	20.7 µM and 16.6 µM
CC(C)c1ccc2nc3ccc(C(=O)NCCN(C)C)cn3c(=O)c2c1	> 100	30.8 µM	32.4 µM	36.3	34.7	39.9	38.4	37.1	23.1	30.8										
COc1ccc(Cl)cc1Nc1nc(C(F)(F)F)ccc1C(=O)NN	> 85.1	63 µM	> 100 µM	> 100	> 100	> 100	> 100	> 100	30.2	> 100	7.83 µM	1.51 µM	3.38 µM	1.38 µM	18.4 µM	2.43 µM	5.06 µM	3.62 µM	3.21 µM	18.7 µM
Cc1cc(N(CCNc2ccnc3cc(Cl)ccc23)Cc2ccc3c(c2)OCO3)nc(N2CCN(C)CC2)n1	12.7	8.85 µM	3.53 µM	7.89	12.8	4.25	4.64	36.8	3.36	10.9	3.09 µM	2.43 µM	1.89 µM	2.42 µM	3.51 µM	2.01 µM	2.05 µM	17.7 µM	1.77 µM	2.4 µM
C[C@]12CC[C@@H]3c4ccc(O)c([N+](=O)[O-])c4CC[C@H]3[C@@H]1CC[C@@H]2NS(=O)(=O)c1ccc(C(F)(F)F)cc1	4.68	3.48 µM	3.66 µM	7.55	6.07	3.13	7.22	3.78	5.41	4.23	2.12 µM	1.07 µM	1.99 µM	2.28 µM	1.98 µM	1.56 µM	2.45 µM	1.62 µM	1.99 µM	1.91 µM
CCOC(=O)c1c(NC(=O)c2ccc(C(C)C)cc2)sc2c(CN(C)C)c(O)ccc12	8.69	9.02 µM	3.24 µM	4.06	20.7	7.13	5.17	6.48	3.22	3.77	2.89 µM	1.86 µM	1.73 µM	1.98 µM	4.29 µM	2.59 µM	2.01 µM	2.19 µM	1.72 µM	1.75 µM
CC[C@H](C)[C@H](NC(=O)c1cnccn1)C(=O)N(C)[C@H](C[C@@H](OC(C)=O)c1nc(C(=O)N[C@@H](Cc2ccccc2)C[C@H](C)C(=O)OC)cs1)C(C)C	> 33.3	3.15 µM	> 33.3 µM	> 33.3	> 33.3	> 33.3	> 33.3	> 33.3	> 33.3	> 33.3	1.04 µM	0.907 µM	2.37 µM	1.66 µM	3.22 µM	1.18 µM	2.48 µM	4.74 µM	3.3 µM	0.0909 µM
Cc1cccc(NC(=O)c2sc3nc4c(cc3c2N)CCCC4)c1C	> 100	0.981 µM	> 100 µM	> 100	> 100	> 100	> 100	> 25.1	> 100	> 100	0.547 µM	0.232 µM	> 48.4 µM	1.03 µM	0.612 µM	0.416 µM	0.505 µM	1.44 µM	0.614 µM	0.339 µM
C/C(=N\O)c1ccc(Nc2cc(-n3nnc4ccccc43)nc3ccccc23)cc1	42.5	30.8 µM	> 69 µM	> 41.9	> 41.3	25.3	> 34.7	30.3	36.1	14.4	12.9 µM	7.25 µM	16.9 µM	9.97 µM	8.42 µM	6.68 µM	8.23 µM	7.88 µM	11.2 µM	5.24 µM
Fc1cccc(COc2ccc(Nc3ncnc4sc(-c5ccco5)cc34)cc2Cl)c1	> 25	> 25 µM	> 25 µM	> 25	> 25	> 25	> 25	> 25	> 25	> 25	> 25 µM	> 25 µM	> 25 µM	> 25 µM	> 25 µM	> 25 µM	> 14.5 µM	> 25 µM	> 25 µM	> 25 µM
Nc1cc2c3c(cccc3c1)NC2=O	> 100	> 100 µM	> 100 µM	> 100	> 100	> 100	> 100	> 100	> 100	> 100										
COc1cc(-c2csc(NC(=O)c3cc(C(F)(F)F)cc(C(F)(F)F)c3)n2)cc(OC)c1OC	> 100	> 100 µM	> 100 µM	> 100	> 100	> 100	6.29			> 100	4.37 µM	2.63 µM	2.77 µM	3.64 µM	2.58 µM	2.7 µM	1.84 µM			2.16 µM
